Reference: US20240299393A1, “SMALL MOLECULE DISRUPTORS OF PROTEIN INTERACTIONS IN HISTONE DEACETYLASE COMPLEXES” (Dana-Farber Cancer Institute, Inc., priority 2021, published 2024)

Columns and labels:
[1] = test system: Rpd3-regulated genes (URS-URA3, INO1, IME2, CAR1, SPO13, TRK2); experiment: RT-qPCR of Rpd3-regulated genes in yeast; assay type: cell-based, S. cerevisiae; conditions: for derepression of URS-URA3 in deletion strains: rpd3Δ, sin3Δ, ume6Δ, sin3Δ/ume6Δ
Description: After yeast cells reached OD600 nm ˜0.5 in 0.8-1 mL of YPD, they were grown for two more hours at room temperature before being centrifuged to remove supernatant and freezing pellets on dry ice. For compound treatments, yeast cells at OD600 nm˜0.5 in YPD were incubated at room temperature for two hours with DMSO (1-1.6%) or the desired compound (from 25 mM stock in 100% DMSO) in an 2 mL-tube for a final volume of 0.8 mL in YPD, before being centrifuged, washed and frozen as described above. Yeast cells were then harvested for RNA extraction using a RiboPure RNA Purification Kit (Invitrogen, cat #AM1926), which involves mechanical cell wall disruption, phenol extraction of the lysate, and RNA purification using glass fiber, and filter-based RNA purification columns. RNA concentration was measured for individually purified RNA samples using a NanoDrop spectrophotometer. A total of 1 μg RNA from each sample was used for reverse transcription following a published procedure [Choi, S. G. et al 2012].
The RT-qPCR protocol used in this study was described elsewhere [Choi et al 2012]. Culture, RNA extraction, and compound treatments for neuroblastoma SK-N-BE(2)-C cells are described below. Approximately 1 μg RNA per sample was used for reverse transcription. Using a thermocycler, RNA was denatured in the presence of 0.2 μg 18 mer oligo-dT by heating the plate at 65° C. for 10 min. The plate was then immediately cooled down on ice to anneal oligo-dT on the poly-A tail of mRNA. A master mix of AffinityScript Multiple Temperature Reverses Transcriptase (Agilent, cat #600107) was prepared following the manufacturer's protocol, and mixed with RNA samples previously annealed with the oligo-dT. The plate was incubated at 42° C. for 2 h to generate cDNAs from mRNA templates. The reverse transcriptase was then denatured by heating the plate at 70° C. for 15 min. The resulting cDNA was diluted (1:20) in sterile, ultra pure water (ddH2O), and stored at −20° C. until used for qPCR. To measure gene expression, the diluted cDNA was mixed with 5 μL PowerUp SYBR Green master mix (Applied Biosystems, cat #A25743), and the mix of primers (forward+reverse, see FIG. 31; 0.3 μM final concentration) for a total volume of 10 μL. Two technical replicates were generated per cDNA sample in the 384-well PCR plate (Applied Biosystems, cat #4343370). The plate was tightly sealed with optical adhesive film (Applied Biosystems, cat #4311971). Quantitative PCR was conducted with a QuantStudio real-time PCR system from Applied Biosystems, with the following settings: 50° C./2 min, 95° C./10 min, 96° C./15 s/40 cycles, and 60° C./30 s. Dissociation curves were checked for each PCR product, to assess the specificity of the PCR amplicons.
Expression of gene X normalized to the control gene expression=k*1.96^(Ct^Control^−Ct^Test^) • where k is an arbitrary multiplier (k=1000 in this study), 1.96 is the PCR amplification efficiency constant, Ct is the cycle threshold, CtControl is the Ct value for the housekeeping gene used as control (UBC6 in yeast [Teste et al 2009]; RPS11 in human cells [Zhan et al 2014], and CtTest is the Ct value for the tested gene. Replicates corresponding to DMSO treatments or WT yeast cells were averaged and other data points normalized using those DMSO or WT values as references (i.e. expression relative to DMSO or WT). TAF10 in yeast or SNRPD3 in human cells were used as genes not known for being regulated by an HDAC complex (HDAC-unrelated genes).

[2] = test system: SK-N-BE(2)-C neuroblastoma cells; experiment: Matrigel cell invasion assay; assay type: cell-based, human; conditions: FIG. 39A
Description: SK-N-BE(2)C neuroblastoma cells were seeded at 5×10^4 cells per well density in a 24-well plate. Cells were treated for five days with compounds or with DMSO control in Dulbecco's Modified Eagle Medium containing 10% fetal bovine serum, penicillin and streptomycin, in quadruplicate. On Day five, cells were changed to serum-free medium with the same compound concentrations as during the 5-day treatment, and 50,000 cells were seeded on top of a Corning BioCoat Matrigel Invasion Chamber (cat #354480). Medium with 20% FBS was added as chemoattractant to the bottom of the well. Invasion assay was performed per manufacturer instructions. After 48 h, non-invading cells were removed by scrubbing with a cotton tip swab. Cells that remained inside the matrix were stained with 1% crystal violet dye and counted by eye. Percentage of invasive cells was calculated relative to DMSO control.

Compound	effect on CAR1 and SPO13 expression ([1]; 250 μM)	effect on all Rpd3-regulated loci ([1]; FIG. 3I)	derepression of URS-URA3 in deletion strains ([1]; 250 μM)	migration of neuroblastoma cells in the invasion assay [2]	expression at URS-URA3 compared to E6S ([1]; different doses)	increase of INO1 expression ([1]; 250 μM, relative to DMSO)
CC(/C=C/C(=O)NO)=C\[C@@H](C)C(=O)c1ccc(N(C)C)cc1 [TSA, trichostatin A]	consistently derepressed	activated all Rpd3-regulated loci	no effect	significantly reduce	–	–
C[C@@H](NC(=O)c1c(O)n2ccccc2nc1=O)c1ccccc1 [E6R, 4-hydroxy-2-oxo-N—((R)-1-phenylethyl)-3,4-dihydro-2H-pyrido[, 2-a]pyrimidine-3-carboxamide]	–	–	–	significantly reduce	stronger induction of expression at URS-URA3	–
CC(NC(=O)c1c(O)n2ccccc2nc1=O)c1ccccc1 (racemic) [E6]	–	–	drastically decreased	–	–	~150 fold
